Laboratory results from patent publication US10428030B2, “Heterocycle derivatives and their use for the treatment of CNS disorders” (Trillium Therapeutics Inc., priority 2015, dated 2019).

What was measured:
[1] = Fixed speed rotorod, gross motor function (rat); details: male, Sprague-Dawley, in vivo, po
Experimental: On the test day following a defined drug pretreatment period, rats received a maximal electroshock (150 mA, 0.2 s duration, 60 Hz) via corneal electrodes. Protection was defined as absence of a full tonic seizure within 10 s of stimulus delivery. Twenty minutes before the MES procedure, the animals were tested on a fixed speed rotorod (best score from 3 trials at 8 r.p.m, trial duration=60 s) to give an early assessment of drug effect on gross motor function.

[2] = tested on: Frings audiogenic seizure-susceptible mice; assay: Frings audiogenic seizure (AGS)-susceptible mouse model; type: in vivo
Source text: Frings audiogenic seizure (AGS)-susceptible mice model examines the ability of an investigational drug to alter the onset and/or severity of seizures in a genetic mouse model of seizure susceptibility. Mice are genetically susceptible to sound-induced reflex seizures. Their seizure phenotype is characterized by wild running, loss of righting reflex, tonic flexion, and tonic extension in response to high-intensity sound stimulation. […] For example, the prototypical anticonvulsants phenytoin and ethosuximide display widely divergent clinical spectrums in humans, but are both active against sound-induced seizures in mice. Yet, the preclinical utility of this animal model rests in the useful information that can be obtained within a genetically susceptible model of seizures. Further, efficacy in this model provides proof of concept of brain bioavailability following systemic administration. The Frings AGS-susceptible mouse has a well-validated epilepsy phenotype that makes it particularly useful as a screening model. Beginning at about 21 days of age, Frings AGS-susceptible mice display prominent seizure activity in response to a high-intensity sound stimulus. They then remain susceptible to sound throughout their life. This is in stark contrast to the DBA2J AGS-susceptible mouse, which is the other common model of sound-induced seizures, as DBA2J mice are only susceptible to sound-induced seizures during a narrow developmental window (post-natal days 18-30). Thus, the Frings AGS-susceptible mouse seizures respond to a wide range of CNS-active drugs and display sound-induced seizures throughout their lifetime. In this regard, Frings AGS-susceptible mice are a highly useful screening model for the identification and characterization of compounds potentially effective against inherited epilepsy.
Male and female Frings audiogenic seizure-susceptible mice (18-25 g) are maintained in an in-house colony at the University of Utah. For each screening test, groups of 8 mice each are treated i.p. with varying doses of the investigational compound. At the time of peak effect as determined in the MES test (Test 4 in CF1 mice), individual mice are placed in a round plexiglass jar (diameter, 15 cm, height, 18 cm) and exposed to a sound stimulus of 110 decibels (11 KHz) delivered for 20 sec. Mice are observed for 25 sec for the presence or absence of hind limb tonic extension. Mice not displaying hind limb tonic extension are considered protected. The severity of a seizure may also be quantitated by assigning a numerical score to the observed response, e.g. no response—0; wild running for <10 sec—1; wild running for >10 sec—2; clonic seizure—3; forelimb extension/hind limb flexion—4; tonic seizure—5.

hippocampal kindled rat = assay: Hippocampal kindled rat model (focal seizures); type: in vivo; details: <300 mg/kg i.p., vs vehicle controls
Source text: Hippocampal Kindled Rat Test is designed to quantify the anticonvulsant effects of a test compound in the kindled rat model. Rats treated by i.p. injection.
The Kindled Rat is a model of temporal lobe epilepsy, which is the most common and drug-resistant type of adult focal epilepsy (Morimoto et al., 2004). […] This acquired hyper-responsiveness is called kindling and results not only in increased seizure responses but also in an elongation of the after-discharge duration seen on an EEC recording. Electrodes are implanted into the hippocampus of anesthetized rats, which are then allowed to recover for one week. […] At each time point, the behavioral seizure score (BSS) and after-discharge duration (ADD) is recorded. The BSS's are scored according to the following criteria (Racine, Electroencephalogr Clin Neurophysiol 1972, 32:281-94): Stage 1—mouth and facial clonus; Stage 2—stage 1 plus head nodding; Stage 3—stage 2 plus forelimb clonus; Stage 4—stage 3 plus rearing; and Stage 5—stage 4 plus repeated rearing and falling.
The afterdischarge threshold (ADT) can also be measured in the kindled rat. […] The individual rat ADT is then determined at varying times (i.e., 0.25, 1, 2, and 4 hr) after drug administration.

ED50 at 4 hours [1]: > 500 mg/kg
SMILES: O=C1COc2cc(OCc3ccc(OC(F)F)cc3)ccc2N1 [Compound I(B)]
ED50 ([2]; Mus musculus, ip, sound-induced seizures): 13 ± 2 mg/kg | effect on AGS ([2]; i.p.): dose-dependently blocks AGS | suppression of fully kindled (stage 5) seizures (hippocampal kindled rat): dose related suppression of fully kindled (stage 5) seizures
